From patent publication US11058685B2, “Therapeutic agent for tumors identified by phosphorylation of proto-oncogene protein belonging to VAV family” (priority 2016, dated 2021)

Assays:
[1] = tested on: VAV1; assay: VAV1 Y174 phosphorylation (Western blot) in Jurkat cells expressing G17V RHOA mutant, anti-CD3 stimulation; assay type: cell-based, human; conditions: dasatinib 0 to 10 nM, 30 minutes, FIG. 7(A)
Method: (§1) (1) Jurkat cells (T-cell leukemia cell line) engineered with a lentivirus-mediated Tet-On system to express wild-type RHOA cDNA or a RHOA coding region modified to comprise a G to T substitution at position 50 of the coding region (hereinafter referred to as G17V RHOA cDNA) were seeded in RPMI (10% FCS, 1% PS) at 2×10^5 cells/mL in 15 cm petri dishes in triplicate. Doxycycline was added to give a final concentration of 2 μg/mL. On the following day, the cells were collected and centrifuged, and then seeded in RPMI (serum-free) at 6×10^5 cells/mL in 15 cm petri dishes in triplicate. After 4 hours, the cells were collected and washed once with sterile phosphate buffered saline (PBS), and then adjusted to 2×10^4 cells/ml and transferred to 15 ml tubes, followed by incubation at 37° C. for 5 minutes. LEAF™ purified anti-human CD3 Ab (BioLegend) and anti-mouse IgG antibody Ab (at 2 μg/ml each) were added. The cells were incubated at 37° C. for 5 minutes or 30 minutes. Cold PBS (10 ml) was added to each tube, followed by centrifugation to remove the supernatants. Lysis buffer (supplemented in advance with complete protease inhibitor and PhosSTOP) was added in a volume of 1000 μl/tube. The tubes were incubated on ice for 20 minutes and centrifuged to collect the supernatants. Laemuli's buffer and DTT were added, followed by incubation at 95° C. for 5 minutes. […]

[2] = tested on: interleukin-2 mRNA expression; assay: Interleukin-2 mRNA expression in Jurkat cells expressing G17V RHOA mutant, CD3/CD28 bead stimulation; assay type: cell-based, human; conditions: dasatinib 0 to 10 nM, CD3/CD28 beads, 3 hours, FIG. 8
Method: Dynabeads T-activator CD3/CD28 (Veritas) were mixed with buffer (PBS supplemented with 0.1% BSA+2 mM EDTA, pH 7.4) and allowed to stand on a magnetic rack to remove the supernatant.
Jurkat cells engineered with a lentivirus-mediated Tet-On system to express wild-type or G17V RHOA cDNA were seeded in RPMI (10% FCS, 1% PS) at 2×10^5 cells/mL in 15 cm petri dishes in triplicate. Doxycycline was added to give a final concentration of 2 μg/mL. On the following day, the cells were collected and seeded in a 24-well plate. The Dynabeads T-activator CD3/CD28 (Veritas) washed above were added. After 3 and 6 hours, the cells were collected. The cells were washed once with PBS and their RNA was extracted with an RNeasy Mini Kit (Qiagen). […] IL-2 mRNA was measured with the primer/probe sets of Taqman Gene Expression Assays (Thermo Fisher Scientific). rRNA was measured with TaqMan® Ribosomal RNA Control Reagents (Thermo Fisher Scientific) and used for correction.
Jurkat cells engineered with a lentivirus-mediated Tet-On system to express wild-type RHOA or G17V RHOA cDNA were seeded in RPMI (10% FCS, 1% PS) at 2×10^5 cells/mL in 15 cm petri dishes in triplicate. […] IL-2 mRNA was measured with the primer/probe sets of Taqman Gene Expression Assays (Thermo Fisher Scientific). rRNA was measured with TaqMan® Ribosomal RNA Control Reagents (Thermo Fisher Scientific) and used for correction.

[3] = tested on: VAV1; assay: VAV1 Y174 phosphorylation in Jurkat cells expressing VAV1 mutant, anti-CD3 stimulation; assay type: cell-based, human; conditions: dasatinib 0 to 10 nM, 30 minutes, FIG. 15
[4] = tested on: angioimmunoblastic T-cell lymphoma (AITL) model mice; assay: AITL therapeutic transplant model: nude mice injected with donor mouse swollen lymph node-derived cells; assay type: in vivo
Method: An AITL model is regarded as having been established, but a long incubation period is required to observe oncogenesis after pIpC administration. For this reason, this genetically modified mouse model is not suitable for use in therapeutic experiments. Thus, an attempt was made to establish a transplant model. […] It should be noted that inflammatory cells migrating to the tumor tissue were composed of donor mouse-derived cells and host mouse-derived cells in admixture.
Donor mouse swollen lymph node-derived cells (2×10^7 cells) were all intraperitoneally injected into nude mice and, after 2 weeks (after lymph node swelling was observed by echography in some mice), 5 mg/kg of dasatinib dissolved in a solution of propylene glycol:distill water adjusted to 1:1 was orally administered to the mice for successive 14 days (the dasatinib group: “Dasatinib” in FIG. 17). As a control, nude mice under completely the same conditions were administered with the same volume of the solution alone (propylene glycol: distill water=1:1) according to the same schedule (the control group: “Vehicle” in FIG. 17). The results of these administration experiments are show in FIG. 17.

[5] = tested on: PLC-gamma 1; assay: PLC-gamma 1 phosphorylation (Western blot) in Jurkat cells expressing G17V RHOA mutant; assay type: cell-based, human; conditions: dasatinib 0 to 10 nM, 30 minutes, FIG. 7(B)
Method: as §1

[6] = tested on: phosphorylated VAV1; assay: Anti-phosphorylated VAV1 staining of swollen lymph node sections of AITL transplant model mice; assay type: in vivo, mouse; conditions: nude mice; dasatinib three times daily for 2 days, 2 weeks after cell injection; sacrificed on the following day
Method: In addition, donor mouse swollen lymph node-derived cells (2×10^7 cells) were all intraperitoneal injected into nude mice and, after 2 weeks, dasatinib or a control solution was administered three times daily for 2 days in accordance with the above procedure. On the following day, the nude mice were sacrificed, and thin section specimens were prepared from their swollen lymph nodes and then stained with anti-phosphorylated VAV1 antibody.

[7] = tested on: NFAT activity; assay: NFAT luciferase reporter activity in Jurkat cells expressing VAV1 mutant; assay type: cell-based, human; conditions: dasatinib 0 to 10 nM, 30 minutes, anti-CD3 stimulation, FIG. 16
Method: In accordance with the protocol of Dual Luciferase Reporter Assay (Promega), firefly luciferase activity and renilla luciferase activity were each measured, and the value of firefly luciferase was divided by the value of renilla luciferase to correct the transfection efficiency. In more detail, the cells were mixed with Passive Lysis Buffer (PLB) in a volume of 100 μl/tube, followed by freezing at −80° C. to lyse the cells. After centrifugation, the supernatants were collected. In a 96-well plate. LARII was dispensed in a volume of 100 μl/well. 20 μl of each cell lysate was added. The plate was mounted on a luminometer and Stop & Glo® Reagent was added in 100 μL volumes, followed by measurement again with the luminometer.
In a 96-well flat-bottomed plate, LEAF™ purified anti-human CD3 Ab (BioLegend) adjusted to 10 μg/ml with PBS was dispensed in a volume of 50 μL/well and incubated overnight at 4° C. After removal of the antibody solution, each well was washed three times with sterile PBS.
Jurkat cells were seeded at 5×10^4 cells/well in a 24-well plate. […] After 30 minutes, the cells were collected and then stimulated with LEAF™ purified anti-human CD3 Ab (BioLegend) and measured for firefly luciferase activity and renilla luciferase activity by reference to Example 3 described above, etc.

[8] = 5 mg/kg orally for successive 14 days, FIG. 17

Structure (SMILES): Cc1nc(Nc2ncc(C(=O)Nc3c(C)cccc3Cl)s2)cc(N2CCN(CCO)CC2)n1 [dasatinib, N-(2-chloro-6-methyl-phenyl)-2-[[6-[4-(2-hydroxyethyl)-1-piperazinyl]-2-methyl-4-pyrimidinyl]amino]-5-thiazolecarboxamide]
- enhanced Y174 phosphorylation (VAV1) induced by G17V RHOA mutant expression [1]: cancels the enhanced Y174 phosphorylation
- enhanced interleukin-2 mRNA expression induced by G17V RHOA mutant expression [2]: cancels the enhanced interleukin-2 mRNA expression
- enhanced Y174 phosphorylation induced by VAV1 mutant expression [3]: cancels the enhanced Y174 phosphorylation
- mice showing progression of lymphoma (body weight loss and hyposthenia) ([4]; 5 mg/kg orally for successive 14 days starting 2 weeks after cell injection, observation period of 150 days, 6/18): 33.3%
- progression of lymphoma versus control group [4, 8]: progression was significantly suppressed
- survival versus control group [4, 8]: survival was prolonged
- enhanced PLC-gamma 1 phosphorylation induced by G17V RHOA mutant expression [5]: cancels the enhanced PLC-gamma 1 phosphorylation
- phosphorylated VAV1 staining in swollen lymph nodes [6]: phosphorylated VAV1 was not stained
- enhanced NFAT activity induced by VAV1 mutant expression [7]: cancels the enhanced NFAT activity
